This is an account of results in article PMC2151243 (British Journal of Cancer, 1998).

For data set [1] the following is noted: mouse, in vivo; cited from earlier work.
Data set [2] has as its system Sheep antiserum to ZD1694 (S37B14). The data set is described as follows: Radioimmunoassay: cross-reaction of S37B14 antiserum. The following applies: for Cross-reaction of S37B14 antiserum (%): relative amount of ZD1694 and cross-reactant required to inhibit antibody binding of radiolabel by 50%. The format is binding. From the text: (§1) British Joumal of Cancer (1998) 77(2), 221-226 ? […] Tomudex is now available for the treat- ment of advanced colorectal cancer in several countries. […] The limit of detection of this assay for plasma was 0.2 g1M when a solid-phase extraction was used. […] Separation of polyglutamated metabo- lites by HPLC was followed by quantitation in fractions using radiochemical analysis (Jackman et al, 1991c; Gibson et al, 1993) or by measuring inhibition of TS (Sikora et al, 1988). […] The dog was chosen as an additional model, because, unlike mice, plasma levels of thymidine are low and this species is much more sensitive to the effects of TS inhibitors than rodents. […] Acetonitrile was from Fisons, Dextran T70 from Pharmacia and all other chemicals from Sigma. Solutions were prepared with deionized water. […] Stock solutions (10 mM) were prepared in 0.15 M sodium bicar- bonate and stored at -20?C. For the mouse studies, the drug was formulated in 0.05 M sodium bicarbonate and the pH was adjusted to 8.5-9.0. Radioimmunoassay The assay diluent was 0.05 M phosphate buffer pH 7.4, containing 1 g 1-' gelatin and 6 g 1-' sodium chloride (PBSG). Initially, all dilutions and dispensing of standards and samples were made with a Dilutrend diluter, but a Multiprobe (Canberra Packard) auto- mated liquid-handling system was later programmed to perform these steps in the assay. […] Samples were assayed at three appropriate dilutions to ensure that the results of at least two dilutions fell on the linear portion of the stan- dard curve, and samples were reassayed at different dilutions if necessary. The antiserum was diluted in PBSG so that approxi- mately 40% of total radioactivity was bound (Bo) to antibody. This dilution was previously determined from an antiserum dilution curve and was 1:300 to 1:500 depending on the batch of radiolabel used. […] Diluted standards and samples (0.1 ml) were added in duplicate to numbered LP3 tubes (Luckham) or to deep-well blocks (Beckman) with 0.3 ml of assay diluent, 0.1 ml of diluted anti- serum and 0.1 ml of diluted label, mixed and left to stand in iced water for 1 h. Each assay included total counts and non-specific- binding tubes, containing only the radiolabel and buffer, and zero- standard-binding tubes (Bo), which contained only radiolabel and antiserum. The antibody-bound radiolabel was separated from unbound radiolabel by the addition of ice-cold dextran-coated charcoal [2.5% (w/v) activated charcoal (Sigma) coated with 0.25% (w/v) Dextran T-70 (Pharmacia)] to all but the total-counts tubes for 10 min. After centrifugation at 1000 g for 10 min at 4?C, 0.5 ml aliquots of supematant were taken from each assay tube for scintillation counting in 4.0 ml of Ultima gold scintillant (Canberra-Packard). […] The radioimmunoassays were carried out at the Institute of Cancer Research. […] The limit of detection for 6-8 x 10^6 cells is 0.05 µM intracellular concentration. […] Plasma was immediately separated from the; approximately blood by microcentrifugation and stored at -20?C until assayed. Liver and kidney samples were immediately frozen on solid carbon dioxide. Gut epithelium samples were obtained 1 day after drug treatment.

Data set [3] addresses Thymidylate synthase (TS; EC 2.1.1.45), mouse enzyme. The following applies: ref Jackman et al, 1991a, Gibson et al, 1993, read-out: Kj for mouse enzyme; cited from earlier work.
On the set-up of data set [4]: method as in Aherme et al, 1996b. Particulars: ref Aherme et al, 1996b; cited from earlier work.
Data set [5] in a line: Mouse pharmacokinetic studies: plasma and tissue levels by radioimmunoassay. The format is in vivo, female DBA2 mice. The following applies: female, plasma, ip.
Text: as §1

Data set [6] can be described thus: Pharmacokinetic studies in dogs: plasma and tissue levels by radioimmunoassay. The format is in vivo, Alderley Park Beagle dogs. From the text:
British Joumal of Cancer (1998) 77(2), 221-226 ? […] Tomudex is now available for the treat- ment of advanced colorectal cancer in several countries. […] The limit of detection of this assay for plasma was 0.2 g1M when a solid-phase extraction was used. […] Separation of polyglutamated metabo- lites by HPLC was followed by quantitation in fractions using radiochemical analysis (Jackman et al, 1991c; Gibson et al, 1993) or by measuring inhibition of TS (Sikora et al, 1988). […] The dog was chosen as an additional model, because, unlike mice, plasma levels of thymidine are low and this species is much more sensitive to the effects of TS inhibitors than rodents. […] Acetonitrile was from Fisons, Dextran T70 from Pharmacia and all other chemicals from Sigma. Solutions were prepared with deionized water. […] Stock solutions (10 mM) were prepared in 0.15 M sodium bicar- bonate and stored at -20?C. For the mouse studies, the drug was formulated in 0.05 M sodium bicarbonate and the pH was adjusted to 8.5-9.0. Radioimmunoassay The assay diluent was 0.05 M phosphate buffer pH 7.4, containing 1 g 1-' gelatin and 6 g 1-' sodium chloride (PBSG). […] The antiserum was diluted in PBSG so that approxi- mately 40% of total radioactivity was bound (Bo) to antibody. This dilution was previously determined from an antiserum dilution curve and was 1:300 to 1:500 depending on the batch of radiolabel used. […]

For another data set, the system named is L1210 cells. Further details: method as in Jackman et al, 1995c. The following applies: L1210, 0.1 µM, 24 h; ref Jackman et al, 1995c; cited from earlier work.
The next data set concerns L1210:RD1694 cells. Further details: method as in Jackman et al, 1995c. Particulars: resistant line, after 24 h; ref Jackman et al, 1995c; cited from earlier work.
On the set-up of data set [7]: method as in Jodrell et al, 1991. The following applies: mice, 100 mg kg-1, HPLC; ref Jodrell et al, 1991; cited from earlier work.
On the set-up of data set [8]: method as in Judson et al, 1996. Particulars: man, ref Judson et al, 1996, cited from earlier work.
On the set-up of data set [9]: method as in Jackman et al, 1995a. The following applies: mice, ref Jackman et al, 1995a, cited from earlier work.
Data set [10] has as its system L5178Y TK-/- mouse lymphoma. Set-up: method as in Jackman et al, 1991b. Particulars: single i.p. injection 10 mg kg-1; ref Jackman et al, 1991b; cited from earlier work.
The test system of data set [11] is thymidine salvage competent models. Further details: method as in Jackman et al, 1991a and b. Particulars: repeated treatment over 5 days; ref Jackman et al, 1991a and b; cited from earlier work.

pIC50, pKi: −log10 of the molar value. Where “and” joins values, the source holds several entries; their conditions need not be identical. Equal values may be shown once. Entries after “also recorded” stand apart in the source; their conditions may differ. Bounds are passed on as bounds.

As usually defined, the half-life is the time needed for the level to fall by half in the phase considered.

In the case of `C#CCN(Cc1cc2c(=O)[nH]c(C)nc2cc1C)c1ccc(C(=O)N[C@@H](CCC(=O)N[C@H](CCC(=O)O)C(=O)O)C(=O)O)c(F)c1` [CB30900], the “liver levels relative to plasma levels” value in data set [1] is “sixfold higher”.
Consider `Cc1nc2ccc(CN(C)c3ccc(C(=O)NC(CCC(=O)NC(CCC(=O)O)C(=O)O)C(=O)O)s3)cc2c(=O)[nH]1` (stereo not shown) [Diglutamate], for which, in [2], the “Cross-reaction of S37B14 antiserum (%)” value was found to be 90%.
Turning to `Cc1nc2ccc(CN(C)c3ccc(C(=O)NC(CCC(=O)NC(CCC(=O)NC(CCC(=O)NC(CCC(=O)NC(CCC(=O)NC(CCC(=O)O)C(=O)O)C(=O)O)C(=O)O)C(=O)O)C(=O)O)C(=O)O)s3)cc2c(=O)[nH]1` (stereo not shown) [Hexaglutamate], the “Cross-reaction of S37B14 antiserum (%)” value in data set [2] is 100%.
The same measure, in the same setting: next, `Nc1nc2c(c(=O)[nH]1)N(C=O)C(CNc1ccc(C(=O)N[C@@H](CCC(=O)O)C(=O)O)cc1)CN2` (stereo partly shown) [Leucovorin]: < 0.01%.
For the molecule `CN1c2c(nc(N)[nH]c2=O)NCC1CNc1ccc(C(=O)N[C@@H](CCC(=O)O)C(=O)O)cc1` (stereo partly shown) [Methyl-THFA], the “Cross-reaction of S37B14 antiserum (%)” value in data set [2] was < 0.01%.
Still for that read-out and setting: next, `Cc1nc2ccc(CN(C)c3ccc(C(=O)N[C@@H](CCC(=O)N[C@@H](CCC(=O)N[C@@H](CCC(=O)N[C@@H](CCC(=O)N[C@@H](CCC(=O)O)C(=O)O)C(=O)O)C(=O)O)C(=O)O)C(=O)O)s3)cc2c(=O)[nH]1` [Pentaglutamate]: 110%.
Take `Cc1nc2ccc(CN(C)c3ccc(C(=O)NC(CCC(=O)NC(CCC(=O)NC(CCC(=O)NC(CCC(=O)O)C(=O)O)C(=O)O)C(=O)O)C(=O)O)s3)cc2c(=O)[nH]1` (stereo not shown) [Tetraglutamate]: the “Cross-reaction of S37B14 antiserum (%)” value in data set [2] was 110%. For the same molecule, the pKi in data set [3] is 9.00.
For the molecule `Cc1nc2ccc(CN(C)c3ccc(C(=O)NC(CCC(=O)NC(CCC(=O)NC(CCC(=O)O)C(=O)O)C(=O)O)C(=O)O)s3)cc2c(=O)[nH]1` (stereo not shown) [Triglutamate], the “Cross-reaction of S37B14 antiserum (%)” value in [2] was 92%.
Consider `C#CCN(Cc1cc2c(=O)[nH]c(C)nc2cc1C)c1ccc(C(=O)N[C@@H](CCc2nnn[nH]2)C(=O)O)c(F)c1` [ZD933 1], for which, in [4], the “tissue to plasma ratios” value is listed as “low tissue to plasma ratios”.
In the case of `Cc1nc2ccc(CN(C)c3ccc(C(=O)N[C@@H](CCC(=O)O)C(=O)O)s3)cc2c(=O)[nH]1` [ZD1694, N-[5-[N-(3,4-dihydro-2-methyl-4-oxoquinazolin-6-ylmethyl)-N-methylamino]-2-thenoyl]-L-glutamic acid], the pIC50 in [2] (ZD1694 standard curve, read-out: mean dose at 50% inhibition of binding) is 8.83. Moreover, the “Cross-reaction of S37B14 antiserum (%)” value in [2] was 100%. For the same molecule, the concentration at 1 day amounted to 2.26 ng/mL in [5] (DBA2, mouse, single i.p. 1 mg kg-1, day 1); 7.18 nM in data set [5] (DBA2, mouse, single i.p. 10 mg kg-1, day 1); 30.7 nM in [5] (DBA2, mouse, single i.p. 100 mg kg-1, day 1). In addition, in [5] (DBA2, mouse, single i.p. 100 mg kg-1, day 4), the concentration at 4 day is 2.39 nM. In data set [5] (mouse, DBA2 mice, 5 mg kg-1 i.p., non-compartmental model, read-out: plasma elimination phase (half-life) (converted)), the half-life is ~162 min. Besides, the concentration at 28 day in [6] (Alderley Park Beagle, dog, plasma, iv, 0.2 mg kg-1 single i.v. bolus, 28 days after administration) is ~0.4 ng/mL and ~0.85 nM. Also, in [6] (at 28 days, limit of detection 0.015 nmol g-1), the “gastrointestinal tissue drug concentrations” value was “near to the limit of detection; also recorded: at or near the limit of detection”. The “intracellular concentration of ZD1694 by radioassay” value in the data set with L1210 cells is 3.8 gM. Moreover, in the data set with L1210:RD1694 cells, the “level of total drug ZD1694 estimated by radioassay” value is listed as 0.44 gM. For the same molecule, the plasma half-life in data set [7] is listed as ~30 min. Moreover, the third phase half-life in [8] (plasma) was 10.7 days. Besides, the “drug measured in the plasma” value in [8] (up to 4 weeks after drug administration) is 1 to 10 ng/mL. The “radioactivity in the tissues present as polyglutamates” value in data set [9] (24 h after tritiated ZD1694 5 mg kg-1) is ~80%. Also, the “polyglutamates in mouse plasma” value in [9] (tritiated ZD1694) is “No polyglutamates were found”. The anti-tumour effect result in [10] is “curative”; in data set [11], “led to anti- tumour activity”.
